Source: patent publication US20160090556A1, “PRODUCTS COMPRISING MALODOR REDUCTION MATERIALS” (The Procter & Gamble Company, priority 2014, published 2016)
Read-outs that look alike come from different tables or passages of the source.

How the values were obtained:
[1] = Probability of Ingredient Color Instability; assay type: physicochemical
[2] = Liquid dish neat product liquid-air partition coefficient; assay type: physicochemical; conditions: for Comment Code: Log of liquid dish neat product liquid-air partition coefficient: code letters K, L
[3] = class code letter within Comment Code

For `COc1c2ccoc2c(OC)c2oc(=O)ccc12` [Material 199], the “Probability of Ingredient Color Instability (Comment Code E/F)” value (shortened to “Probability”) [1, 3] was “F (Probability of Ingredient Color Instability<71%)”.

In the case of `COC(=O)c1ccccc1NC(O)CC(C)c1ccccc1` (centres unmarked) [Material 1093], the “Probability” value [1] is reported as “F (Probability of Ingredient Color Instability<71%)”.

For `CCCCCCCCC(C)C=O` (centres unmarked) [Material 92], the “Probability” value [1, 3] was “F (Probability of Ingredient Color Instability<71%)”.

In the case of `CCCCCC1C(=O)CCC1C` (centres unmarked) [Material 1053], the “Probability” value [1] is reported as “F (Probability of Ingredient Color Instability<71%)”.

In the case of `CC(C)=CCCC(C)=CCOC(=O)Cc1ccccc1` [Material 300], the “Probability” value [1, 3] is reported as “F (Probability of Ingredient Color Instability<71%)”.

For `O=C(OC1CCCCC1)c1ccccc1O` [Material 482], the “Probability” value [1, 3] was “F (Probability of Ingredient Color Instability<71%)”.

With `CC1=CCCC(C)(C)C12CCC(C)O2` (centres unmarked) [Material 1057] the “Probability” value [1] was “F (Probability of Ingredient Color Instability<71%)”.

With `Cc1ccc(OC(=O)Cc2ccccc2)cc1` [Material 998] the “Probability” value [1] was “F (Probability of Ingredient Color Instability<71%)”.

For `CCCCCCCCCC(C)=O` [Material 102], the “Probability” value [1, 3] was “F (Probability of Ingredient Color Instability<71%)”.

In the case of `CC1=CCC(C23CCCC(C)(C2)OC3)C1(C)C` (centres unmarked) [Material 571], the “Probability” value [1] is reported as “F (Probability of Ingredient Color Instability<71%)”.

For `CCC(C)(C)C1CCC(=O)CC1` [Material 21], the “Probability” value [1, 3] was “F (Probability of Ingredient Color Instability<71%)”.

In the case of `O=CC1CCC2C3CCC(C3)C12` (centres unmarked) [Material 130], the “Probability” value [1, 3] is reported as “F (Probability of Ingredient Color Instability<71%)”.

With `CCCCCCC(=O)CC` [Material 394] the “Probability” value [1, 3] was “F (Probability of Ingredient Color Instability<71%)”.

In the case of `O=C1CCCCCCCCCCCC(=O)OCCO1` [Material 378], the “Probability” value [1, 3] is reported as “F (Probability of Ingredient Color Instability<71%)”.

For `CCCCCCCC(C)=O` [Material 840], the “Probability” value [1] was “F (Probability of Ingredient Color Instability<71%)”.

For `CCCCCC=C1CCCC1=O` [Material 850], the “Probability” value [1] was “F (Probability of Ingredient Color Instability<71%)”.

With `CC=Cc1ccc(OCc2ccccc2)c(OC)c1` [Material 212] the “Probability” value [1, 3] was “F (Probability of Ingredient Color Instability<71%)”.

For `C/C=C/CCC1CCCC(=O)O1` (centres unmarked) [Material 187], the “Probability” value [1, 3] was “F (Probability of Ingredient Color Instability<71%)”.

With `CCCCCCCC1CCCC1=O` (centres unmarked) [Material 362] the “Probability” value [1, 3] was “F (Probability of Ingredient Color Instability<71%)”.

With `CCCCCCC1=CCCC1=O` [Material 209] the “Probability” value [1, 3] was “F (Probability of Ingredient Color Instability<71%)”.

For `CCC(C)CCCC(C)C=O` (centres unmarked) [Material 866], the “Probability” value [1] was “F (Probability of Ingredient Color Instability<71%)”.

In the case of `CC1=CC(C)C2(CCCC(C)(C)C2=O)CC1` (centres unmarked) [Material 1022], the “Log of liquid dish neat product liquid-air partition coefficient (Comment Code K/L)” value (shortened to “Log … (Comment Code K/L)”) [2] is reported as “K (Log of liquid dish neat product liquid-air partition coefficient greater than or equal to −7)” and the “Comment Code: Log of liquid dish neat product liquid-air partition coefficient” value (“Comment Code: Log” below) [2] is reported as “K (Log of liquid dish neat product liquid-air partition coefficient greater than or equal to −7)”.

For `N#C/C=C/c1ccccc1` [Material 556], the “Comment Code: Log” value [2] was “K (Log of liquid dish neat product liquid-air partition coefficient greater than or equal to −7)”.

For `c1ccc(Oc2ccccc2)cc1` [Material 428], the “Log … (Comment Code K/L)” value [2, 3] was “K (Log of liquid dish neat product liquid-air partition coefficient greater than or equal to −7)”.

For `CC/C=C\C/C=C\CCO` [Material 546], the “Log … (Comment Code K/L)” value [2, 3] was “K (Log of liquid dish neat product liquid-air partition coefficient greater than or equal to −7)”.

With `O=C(O)CCc1ccccc1` [Material 255] the “Comment Code: Log” value [2] was “K (Log of liquid dish neat product liquid-air partition coefficient greater than or equal to −7)”.

For `CCC(C)(O)/C=C/C=C(C)C` (centres unmarked) [Material 81], the “Comment Code: Log” value [2] was “K (Log of liquid dish neat product liquid-air partition coefficient greater than or equal to −7)”.

For `CC/C(=C/CC1CC=C(C)C1(C)C)CO` (centres unmarked) [Material 1024], the “Log … (Comment Code K/L)” value [2] was “K (Log of liquid dish neat product liquid-air partition coefficient greater than or equal to −7)” and the “Comment Code: Log” value [2] was “K (Log of liquid dish neat product liquid-air partition coefficient greater than or equal to −7)”.

With `CC(=O)c1cc2c(cc1C)C(C)(C)C(C)C2(C)C` (centres unmarked) [Material 927] the “Log … (Comment Code K/L)” value [2] was “K (Log of liquid dish neat product liquid-air partition coefficient greater than or equal to −7)” and the “Comment Code: Log” value [2] was “K (Log of liquid dish neat product liquid-air partition coefficient greater than or equal to −7)”.

With `C[C@@H]1CCC=C2CC[C@@H](C(C)(C)O)C[C@]21C` [Material 1107] the “Log … (Comment Code K/L)” value [2] was “K (Log of liquid dish neat product liquid-air partition coefficient greater than or equal to −7)” and the “Comment Code: Log” value [2] was “K (Log of liquid dish neat product liquid-air partition coefficient greater than or equal to −7)”.

In the case of `CC1(C)C2=C(CO)CCC(C)(C)C23CCC1C3` (centres unmarked) [Material 248], the “Comment Code: Log” value [2] is reported as “K (Log of liquid dish neat product liquid-air partition coefficient greater than or equal to −7)”.

For `CC1=CCCC(C)=CCC(C)(C)C=CC1` [Material 706], the “Log … (Comment Code K/L)” value [2] was “K (Log of liquid dish neat product liquid-air partition coefficient greater than or equal to −7)”.

For `CC1(O)CCC2=C(CCCC2(C)C)C1` (centres unmarked) [Material 675], the “Log … (Comment Code K/L)” value [2] was “K (Log of liquid dish neat product liquid-air partition coefficient greater than or equal to −7)”.

For `CCC=C(C)C(O)CCCCC` (centres unmarked) [Material 1104], the “Log … (Comment Code K/L)” value [2] was “K (Log of liquid dish neat product liquid-air partition coefficient greater than or equal to −7)”.

For `CC(C)=CCCC(C)=C1CC=C(C)CC1` [Material 608], the “Log … (Comment Code K/L)” value [2] was “K (Log of liquid dish neat product liquid-air partition coefficient greater than or equal to −7)”.

With `CC1=CCC(/C=C/C(C)(C)C(C)O)C1(C)C` (centres unmarked) [Material 985] the “Log … (Comment Code K/L)” value [2] was “K (Log of liquid dish neat product liquid-air partition coefficient greater than or equal to −7)”.

For `CCCCCCCC1CCCC(=O)O1` (centres unmarked) [Material 463], the “Log … (Comment Code K/L)” value [2, 3] was “K (Log of liquid dish neat product liquid-air partition coefficient greater than or equal to −7)”.

In the case of `CC1=CCC(C=CC(C)C(C)O)C1(C)C` (centres unmarked) [Material 416], the “Log … (Comment Code K/L)” value [2, 3] is reported as “K (Log of liquid dish neat product liquid-air partition coefficient greater than or equal to −7)”.

With `CC(C)=CCC/C(C)=C/COC=O` [Material 306] the “Comment Code: Log” value [2] was “K (Log of liquid dish neat product liquid-air partition coefficient greater than or equal to −7)”.

For `CCC(=O)N(CC)c1cccc(C)c1` [Material 755], the “Comment Code: Log” value [2] was “K (Log of liquid dish neat product liquid-air partition coefficient greater than or equal to −7)”.
